Experiments:
[1] = test system: HLA-A*0201 transgenic HHD mice; test: Tetramer-positive CD8 T cells in draining lymph nodes of vaccinated HHD mice; type: in vivo, mouse; conditions: for Responding mice (response to at least one peptide) / Frequency of strong responses (% of tetramer-positive CD8 cells at least twice the cutoff value; ++): HHD mice vaccinated with polypeptide; for Trispecific response: HHD mice, response to all three peptides
Method: HHD mice were injected subcutaneously with 100 μg of nonamer/decamer peptides, and with 240 μg of polypeptide emulsified in incomplete Freund's adjuvant (IFA) plus 150 μg of the I-A^b restricted HBVcore128 T-helper epitope. Eleven days later spleen cells (5×10^7 cells in 10 ml) from immunized mice were stimulated in vitro with peptide (10 μM) in RPMI 1640+10% FCS for five days. The CTL lines were established by weekly re-stimulation in vitro with irradiated spleen cells in the presence of diminishing peptide concentrations (1 to 0.1 μM) and 50 U/ml IL-2 (Proleukin, Chiron Corp., Emeryville, Calif.).
For tetramer labeling, cells from inguinal and para-aortic lymph nodes (LN) of immunized mice were stained with 15 μg/ml PE-coupled HLA-A2/TERT988Y, HLA-A2/MAGE-A248V9 and HLA-A2/HER-2/neu402Y tetramers (Proimmune, Oxford, UK) in the presence of an anti-Fc receptor antibody (clone 2.4 G2) in 20 μl of PBS, 2% FCS for 1 h at room temperature. The cells were washed once in PBS, 2% FCS and then stained with anti-CD44-FITC (clone 1M.178), anti-TCRβ-cychrome (clone H57) and anti-CD8α-APC (clone 53.6.7) (BD Biosciences, Le Pont de Claix, France) in 50 μl of PBS, 2% FCS for 30 min at 4° C. The cells were then washed once in PBS, 2% FCS and immediately analyzed in a FACSCalibur® flow cytometer (Becton Dickinson, San Jose, Calif., USA).
The simplest way to stimulate a polyspecific CTL response in vivo would be to inject a mixture of the relevant peptides. Therefore, the inventors examined whether HHD mice vaccinated with an equimolar mixture of peptides HER-2/neu402Y, TERT988Y and MAGE-A248V9 developed a polyspecific response in vivo. The immune response was evaluated by measuring the frequency of peptide-specific CD8 T cells in the lymph nodes draining the injection site seven days after vaccination, using specific tetramers. Before use, each tetramer was validated with peptide-specific CTL lines as previously described (Miconnet et al., 2002). A positive response was recorded when the percentage of tetramer-positive CD8 cells was higher than the mean percentage+3 standard deviations of tetramer-positive CD8 cells in six naive mice (0.16% for MAGE-A248V9, 0.13% for HER-2/neu402Y and 0.16% for TERT988Y). Eight mice were vaccinated with the peptide mixture in two independent experiments (Table 2). […] Three mice responded to one peptide and five responded to two peptides. Responses to MAGE-A248V9 were more frequent (6/8 mice) than responses to HER-2/neu402Y (4/8 mice) or TERT988Y (3/8 mice).
HHD mice were vaccinated with each polypeptide, and CD8 T cells specific for the individual peptides were identified in draining lymph nodes by using specific tetramers. All six polypeptide variants were immunogenic in HHD mice (i.e., they generated a response to at least one peptide) but the frequency of responding mice varied from one variant to the other. The most immunogenic variants were Poly-1, Poly-3 and Poly-6, with 100%, 87% and 83% of responding mice, respectively (Table 6). Poly-2, Poly-4 and Poly-5 induced a response in respectively 57%, 62% and 62% of vaccinated mice. The frequency of strong responses (% of tetramer-positive CD8 cells at least twice the cutoff value; designated ++) was highest with Poly-6 (41% of all responses), Poly-3 (30% of all responses) and Poly-1 (25% of all responses). The responses were directed against MAGE-A248V9 in 74% of responding mice, HER-2/neu402Y in 71% and TERT988Y in 55%.

[2] = test system: PBMC from healthy HLA-A*0201 donors; test: In vitro stimulation of healthy donor PBMC, intracellular IFNγ labeling of CD8 cells; type: cell-based, human; conditions: for Donors with responses to all three peptides (trispecific): healthy donor PBMC, IFNγ-producing CD8 cells
Method: PBMC were collected by leukapheresis from healthy HLA-A*0201 volunteers. Dendritic cells (DC) were produced from adherent cells (2×10^6 cells/ml) cultured for seven days with 500 IU/ml GM-CSF (Leucomax®, Schering-Plough, Kenilworth, N.J.) and 500 IU/ml IL-4 (R&D Systems, Minneapolis, Minn.) in complete medium (RPMI 1640 supplemented with 10% heat-inactivated human AB serum, […] and antibiotics). On day 7, DC were pulsed with 10 μM peptides or polypeptides for 2 h; the maturation agents Poly I:C (Sigma, Oakville, Canada) at 100 ng/ml, and anti-CD40 mAb (clone G28-5, ATCC, Manassas, Va.) at 2 μg/ml were added to the culture and DCs were further incubated at 37° C. overnight or for up to 48 hours. Mature DC were then irradiated (3500 rads). CD8+ cells were purified by positive selection with CD8 MicroBeads (Miltenyi Biotec, Auburn, Calif.) according to the manufacturer's instructions. CD8^+ cells (2×10^5)+CD8^− cells (6×10^4) were stimulated with 2×10^4 peptide-pulsed DC in complete culture medium supplemented with 1000 IU/ml IL-6 and 5 IU/ml IL-12 (R&D Systems, Minneapolis, Minn.) in round-bottomed 96-well plates. From day 7, cultures were restimulated weekly with peptide-loaded DC in the presence of 20 IU/ml IL-2 (Proleukin, Chiron Corp., Emeryville, Calif.) and 10 ng/ml IL-7 (R&D Systems, Minneapolis, Minn.). After the third restimulation, CD8 cells were tested in an IFN-γ release assay.
T cells (10^5) were incubated with 2×10^5 T2 cells loaded with stimulating peptide in the presence of 20 μg/ml Brefeldin-A (Sigma, Oakville, Canada). Six hours later they were washed, stained with r-phycoerythrin-conjugated anti-CD8 antibody (Caltag Laboratories, Burlingame, Calif.) in PBS for 25 min at 4° C., washed again, and fixed with 4% PFA. The cells were then permeabilized with PBS, 0.5% BSA, 0.2% saponin (Sigma, Oakville, Canada), and labeled with an allophycocyanin-conjugated anti-IFNγ mAb (PharMingen, Mississauga, Canada) for 25 min at 4° C. before analysis with a FACSCalibur™ flow cytometer (Becton Dickinson, Mountain View, Calif.).
The inability of the peptide mixture to stimulate a trispecific CD8 T cell response was confirmed in vitro with human cells. […] PBMC activation was evaluated by measuring the percentage of IFNγ-producing CD8 cells by means of intracellular labeling. A positive response was recorded when the percentage of activated PBMC was at least twice that obtained with an irrelevant peptide. […]
In vitro immune responses were assessed by measuring the percentage of CD8 cells producing IFNγ after specific peptide activation. […]

| Substance | Responding mice (response to at least one peptide) ([1]; tetramers) | Trispecific response [1] | Frequency of strong responses (% of tetramer-positive CD8 cells at least twice the cutoff value; ++) [1] | Donors with responses to all three peptides (trispecific) [2] | Immunogenicity in HHD mice, in words ([1]; response to at least one peptide) | Mice responding simultaneously to all three peptides (trispecific response), in words ([1]; vaccinated HHD mice, tetramers) | Strength of responses in human donor cells, in words ([2]; against MAGE-A248V9 in donors #D7017 and #D7225, against HER-2/neu402Y in donor #D7744) | Peptides the donor's CD8 cells responded to ([2]; donor #D7225) |
| --- | --- | --- | --- | --- | --- | --- | --- | --- |
| YLEEITGYL-YLEYRQVPV-YLQVNSLQTV (SEQ ID No: 6) (YLEEITGYLYLEYRQVPVYLQVNSLQTV; Poly-4) [polypeptide variant, arrangement N-M-T] | 62% | 37.5 % of vaccinated mice |  |  |  |  |  |  |
| YLEEITGYL-YLQVNSLQTV-YLEYRQVPV (SEQ ID No: 5) (YLEEITGYLYLQVNSLQTVYLEYRQVPV; Poly-3) [polypeptide variant, arrangement N-T-M] | 87% | 12.5 % of vaccinated mice | 30 % of all responses |  |  |  |  |  |
| YLEYRQVPV-YLEEITGYL-YLQVNSLQTV (SEQ ID No: 3) (YLEYRQVPVYLEEITGYLYLQVNSLQTV; Poly-1) [polypeptide variant of MAGE-A248V9, HER-2/neu402Y and TERT988Y, arrangement M-N-T] | 100% | 28.5 % of vaccinated mice | 25 % of all responses | 25 % of donors |  |  |  |  |
| YLEYRQVPV-YLQVNSLQTV-YLEEITGYL (SEQ ID No: 4) (YLEYRQVPVYLQVNSLQTVYLEEITGYL; Poly-2) [polypeptide variant, arrangement M-T-N] | 57% |  |  |  | very weakly immunogenic | did not induce a trispecific response in any mice |  |  |
| YLQVNSLQTV-YLEEITGYL-YLEYRQVPV (SEQ ID No: 7) (YLQVNSLQTVYLEEITGYLYLEYRQVPV; Poly-5) [polypeptide variant, arrangement T-N-M] | 62% | 25 % of vaccinated mice |  |  |  |  |  |  |
| YLQVNSLQTV-YLEYRQVPV-YLEEITGYL (SEQ ID No: 2) (YLQVNSLQTVYLEYRQVPVYLEEITGYL; Poly-6) [polypeptide variant, arrangement T-M-N] | 83% | 67 % of vaccinated mice | 41 % of all responses | 80 % of donors |  |  | strongest responses | all three peptides |

— patent publication US7973128B2, “Immunogenic polypeptide composed of tumor antigen-derived optimized cryptic peptides, and uses thereof” (Vaxon Biotech, priority 2005, dated 2011)
